From US12441730B2, “PRMT5 inhibitors” (Merck Sharp & Dohme LLC, priority 2019, dated 2025)
Where two headings read alike, the source gives them in different places.

What was measured:
[1] = molecular target: T1, Full-length (FL)-PRMT5-MEP50 enzyme complex (Homo sapiens, UniProt O14744); test: PRMT5-MEP50 Enzyme Methylation Assay (Version A); assay type: biochemical
T1 construct: Full-length (FL)-PRMT5-MEP50 enzyme complex (recombinant proteins from baculovirus-transfected Sf21 cells: FL-PRMT5; MW=73837 kDa and FL-MEP50; MW=38614); made in house; host or cells: baculovirus-transfected Sf21 cells
T1 sequence (O14744 whole entry): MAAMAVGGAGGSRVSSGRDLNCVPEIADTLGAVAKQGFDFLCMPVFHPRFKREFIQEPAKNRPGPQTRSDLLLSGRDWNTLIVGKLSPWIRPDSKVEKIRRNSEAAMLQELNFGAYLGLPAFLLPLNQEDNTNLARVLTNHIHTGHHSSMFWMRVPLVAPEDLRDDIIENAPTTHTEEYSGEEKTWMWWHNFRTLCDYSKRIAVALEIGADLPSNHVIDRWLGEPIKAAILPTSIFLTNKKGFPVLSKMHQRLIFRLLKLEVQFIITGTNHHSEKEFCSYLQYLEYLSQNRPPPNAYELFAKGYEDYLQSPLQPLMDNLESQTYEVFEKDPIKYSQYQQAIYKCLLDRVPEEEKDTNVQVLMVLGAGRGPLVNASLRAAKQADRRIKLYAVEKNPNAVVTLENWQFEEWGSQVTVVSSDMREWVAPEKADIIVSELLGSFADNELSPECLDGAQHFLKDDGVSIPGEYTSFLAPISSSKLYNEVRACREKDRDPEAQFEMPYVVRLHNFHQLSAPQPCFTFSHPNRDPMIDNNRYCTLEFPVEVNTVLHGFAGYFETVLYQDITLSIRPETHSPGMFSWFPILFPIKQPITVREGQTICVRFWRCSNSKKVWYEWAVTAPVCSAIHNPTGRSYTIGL
T1 sequence (Q9BQA1 whole entry partner): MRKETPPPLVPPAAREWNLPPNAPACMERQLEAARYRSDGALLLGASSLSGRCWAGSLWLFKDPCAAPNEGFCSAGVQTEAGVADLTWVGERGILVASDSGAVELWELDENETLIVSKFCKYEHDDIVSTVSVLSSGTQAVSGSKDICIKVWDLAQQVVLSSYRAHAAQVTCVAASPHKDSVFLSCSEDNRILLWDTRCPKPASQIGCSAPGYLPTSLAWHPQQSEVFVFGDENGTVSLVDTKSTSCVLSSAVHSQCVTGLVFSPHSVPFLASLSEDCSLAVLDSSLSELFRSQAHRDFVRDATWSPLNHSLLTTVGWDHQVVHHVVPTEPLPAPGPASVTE
Method in brief: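 Compound was pre-incubated with enzyme for 60 min, then reacted 150 min at 37° C. at final 1.0 nM PRMT5-MEP50, 15 μM SAM and 75 nM biotinylated H4R3(Me1) peptide, in 50 mM Bicine pH 8.0 with 1% DMSO. SAMDI mass-spectrometric readout of Me1→Me2 conversion. EC50 from 4- or 7-parameter regression.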

[2] = tested on: symmetric dimethylation of arginine (SDMA) of PRMT5 substrates in MCF-7 cells; test: PRMT5 Cell Target Engagement (TE) Assay; assay type: cell-based; settings: Homo sapiens, MCF7, 72 h, 3 days treatment, SDMA high content imaging
Method in brief: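 Readout is single-cell nuclear symmetric-dimethylarginine immunofluorescence (Alexa488), normalized to DMSO-treated cells. Compounds were applied to MCF-7 cells for 3 days at 37 °C, top concentration 10000 nM in 1:3 steps over ten points; curves fitted with 4-parameter robust fit.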

[3] = second value of 7 parameter biphasic fit, read-out: Enzyme Methylation Assay Version A (EC50 2)
[4] = single EC50 = 4 parameter single site sigmoidal fit, EC50 1 = first value of 7 parameter biphasic fit, read-out: Enzyme Methylation Assay Version A (EC50 or EC50 1)

| SMILES | EC50 [1, 3] | EC50 [1, 4] | EC50 [2] |
| --- | --- | --- | --- |
| Cc1c(C(=O)N2CC[C@]3(Cc4ccccc4CN3)[C@H](O)C2)nn2cc(Br)cnc12 [Example 62, (6-bromo-3-methylpyrazolo[1,5-a]pyrimidin-2-yl)[(3R,3′R)-3′-hydroxy-1,4-dihydro-1′H,2H-spiro[isoquinoline-3,4′-piperidin]-1′-yl]methanone] | 556 nM | 0.395 nM | 31 nM |
| Cc1nc2nc(C(=O)N3CC[C@]4(Cc5ccccc5CN4)[C@H](O)C3)cn2cc1C1CC1 [Example 63, (6-cyclopropyl-7-methylimidazo[1,2-a]pyrimidin-2-yl)[(3R,3′R)-3′-hydroxy-1,4-dihydro-1′H,2H-spiro[isoquinoline-3,4′-piperidin]-1′-yl]methanone] | 417 nM | 0.583 nM | 45.8 nM |
| Cc1c(C2CC2)cnc2nc(C(=O)N3CC[C@]4(Cc5ccccc5CN4)[C@H](O)C3)cn12 [Example 64, (6-cyclopropyl-5-methylimidazo[1,2-a]pyrimidin-2-yl)[(3R,3′R)-3′-hydroxy-1,4-dihydro-1′H,2H-spiro[isoquinoline-3,4′-piperidin]-1′-yl]methanone] | 9770 nM | 19.1 nM | 756 nM |
| Cc1nc(Br)cn2cc(C(=O)N3CC[C@]4(Cc5ccccc5CN4)[C@H](O)C3)nc12 [Example 65, (6-bromo-8-methylimidazo[1,2-a]pyrazin-2-yl)[(3R,3′R)-3′-hydroxy-1,4-dihydro-1′H,2H-spiro[isoquinoline-3,4′-piperidin]-1′-yl]methanone] | 1360 nM | 1.19 nM | 99.1 nM |
| Cc1cn2cc(C(=O)N3CC[C@]4(Cc5ccccc5CN4)[C@H](O)C3)nc2c(O)n1 [Example 66, 2-{[(3R,3′R)-3′-hydroxy-1,4-dihydro-1′H,2H-spiro[isoquinoline-3,4′-piperidin]-1′-y1]carbonyl}-6-methylimidazo[1,2-a]pyrazin-8(7H)-one] | 9330 nM | 13.7 nM | 4410 nM |
| COC(C)c1cc(C(F)(F)F)cn2cc(C(=O)N3CC[C@]4(Cc5ccccc5CN4)[C@H](O)C3)nc12 (stereo partly drawn) [Example 67, [(3R,3′R)-3′-hydroxy-1,4-dihydro-1′H,2H-spiro[isoquinoline-3,4′-piperidin]-1′-yl][8-(1-methoxyethyl)-6-(trifluoromethyl)imidazo[1,2-a]pyridin-2-yl]methanone] | 313 nM | 0.354 nM | 7.98 nM |
| N#CC1(c2cc(Br)cn3cc(C(=O)N4CC[C@]5(Cc6ccccc6CN5)[C@H](O)C4)nc23)CC1 [Example 68, 1-(6-bromo-2-{[(3R,3′R)-3′-hydroxy-1,4-dihydro-1′H,2H-spiro[isoquinoline-3,4′-piperidin]-1′-yl]carbonyl}imidazo[1,2-a]pyridin-8-yl)cyclopropanecarbonitrile] | 1060 nM | 1.17 nM | 99.6 nM |
| CC(C#N)c1ccc2nc(C(=O)N3CC[C@]4(Cc5ccccc5CN4)[C@H](O)C3)cn2c1 (stereo partly drawn) [Example 69, 2-(2-{[(3R,3′R)-3′-hydroxy-1,4-dihydro-1′H,2H-spiro[isoquinoline-3,4′-piperidin]-1′-yl]carbonyl}imidazo[1,2-a]pyridin-6-yl)propanenitrile] | 43.6 nM | 0.405 nM | 12.7 nM |
| O=C(c1cc2ncc(C3CC3)cn2n1)N1CC[C@]2(Cc3ccccc3CN2)[C@H](O)C1 [Example 70, (6-cyclopropylpyrazolo[1,5-a]pyrimidin-2-yl)[(3R,3′R)-3′-hydroxy-1,4-dihydro-1′H,2H-spiro[isoquinoline-3,4′-piperidin]-1′-yl]methanone] | 240 nM | 0.27 nM | 263 nM |
| O=C(c1cn2ncc(Br)cc2n1)N1CC[C@]2(Cc3ccccc3CN2)[C@H](O)C1 [Example 71, (7-bromoimidazo[1,2-b]pyridazin-2-yl)[(3R,3′R)-3′-hydroxy-1,4-dihydro-1′H,2H-spiro[isoquinoline-3,4′-piperidin]-1′-yl]methanone] | 8320 nM | 135 nM | 1500 nM |
| Cc1nc(C(F)(F)F)cn2cc(C(=O)N3CC[C@]4(Cc5ccccc5CN4)[C@H](O)C3)nc12 [Example 72, [(3R,3′R)-3′-hydroxy-1,4-dihydro-1′H,2H-spiro[isoquinoline-3,4′-piperidin]-1′-yl][8-methyl-6-(trifluoromethyl)imidazo[1,2-a]pyrazin-2-yl]methanone] | 335 nM | 3.85 nM | 78.5 nM |
| O=C(c1cc2ncc(C(F)(F)F)cn2n1)N1CC[C@]2(Cc3ccccc3CN2)[C@H](O)C1 [Example 73, [(3R,3′R)-3′-hydroxy-1,4-dihydro-1′H,2H-spiro[isoquinoline-3,4′-piperidin]-1′-yl][6-(trifluoromethyl)pyrazolo[1,5-a]pyrimidin-2-yl]methanone] | 344 nM | 4.43 nM | 339 nM |
| Cn1nccc1-c1cnc2nc(C(=O)N3CC[C@]4(Cc5ccccc5CN4)[C@H](O)C3)cn2c1 [Example 78, [(3R,3′R)-3′-hydroxy-1,4-dihydro-1′H,2H-spiro[isoquinoline-3,4′-piperidin]-1′-yl][6-(1-methyl-1H-pyrazol-5-yl)imidazo[1,2-a]pyrimidin-2-yl]methanone] | 76.7 nM | 0.508 nM | 45.3 nM |
| Cc1nc(C)c(-c2cnc3nc(C(=O)N4CC[C@]5(Cc6ccccc6CN5)[C@H](O)C4)cn3c2)s1 [Example 79, [6-(2,4-dimethyl-1,3-thiazol-5-yl)imidazo[1,2-a]pyrimidin-2-yl][(3R,3′R)-3′-hydroxy-1,4-dihydro-1′H,2H-spiro[isoquinoline-3,4′-piperidin]-1′-yl]methanone] |  | 1.08 nM | 5.3 nM |
| COC(C)c1cc(C(C)C)cn2cc(C(=O)N3CC[C@]4(Cc5ccccc5CN4)[C@H](O)C3)nc12 (stereo partly drawn) [Example 84, A diastereomer of [(3R,3′R)-3′-hydroxy-1,4-dihydro-1′H,2H-spiro[isoquinoline-3,4′-piperidin]-1′-yl][6-isopropyl-8-(1-methoxyethyl)imidazo[1,2-a]pyridin-2-yl]methanone] | 292 nM | 0.464 nM | 10.9 nM |

Second part, the compound after the results:

| EC50 [1, 3] | EC50 [1, 4] | EC50 [2] | SMILES |
| --- | --- | --- | --- |
| 35900 nM | 41.2 nM | 2710 nM | Cc1ccn2cc(C(=O)N3CC[C@]4(Cc5ccccc5CN4)[C@H](O)C3)nc2n1 [Example 111, [(3R,3′R)-3′-hydroxy-1,4-dihydro-1′H,2H-spiro[isoquinoline-3,4′-piperidin]-1′-yl](7-methylimidazo[1,2-a]pyrimidin-2-yl)methanone] |
| 271 nM | 0.703 nM | 6.75 nM | COCc1cc(Cl)cn2cc(C(=O)N3CC[C@]4(Cc5ccccc5CN4)[C@H](O)C3)nc12 [Example 112, (6-chloro-8-(methoxymethyl)imidazo[1,2-a]pyridin-2-yl)((3R,3′R)-3′-hydroxy-1,4-dihydro-2H-spiro[isoquinoline-3,4′-piperidin]-1′-yl)methanone] |
| 339 nM | 0.682 nM | 17.2 nM | COCc1cc(C)cn2cc(C(=O)N3CC[C@]4(Cc5ccccc5CN4)[C@H](O)C3)nc12 [Example 113, ((3R,3′R)-3′-hydroxy-1,4-dihydro-2H-spiro[isoquinoline-3,4′-piperidin]-1′-yl)(8-(methoxymethyl)-6-methylimidazo[1,2-a]pyridin-2-yl)methanone] |
| 6460 nM | 11.8 nM | 274 nM | Cc1c(Br)cnc2nc(C(=O)N3CC[C@]4(Cc5ccccc5CN4)[C@H](O)C3)cn12 [Example 119, (6-bromo-5-methylimidazo[1,2-a]pyrimidin-2-yl)[(3R,3′R)-3′-hydroxy-1,4-dihydro-1′H,2H-spiro[isoquinoline-3,4′-piperidin]-1′-yl]methanone] |
| 351 nM | 0.499 nM | 28.8 nM | Cc1cnc2nc(C(=O)N3CC[C@]4(Cc5ccccc5CN4)[C@H](O)C3)cn2c1 [Example 120, [(3R,3′R)-3′-hydroxy-1,4-dihydro-1′H,2H-spiro[isoquinoline-3,4′-piperidin]-1′-yl](6-methylimidazo[1,2-a]pyrimidin-2-yl)methanone] |
| 3310 nM | 4.88 nM | 65.5 nM | O=C(c1cn2cc(Br)c(C(F)(F)F)nc2n1)N1CC[C@]2(Cc3ccccc3CN2)[C@H](O)C1 [Example 121, [6-bromo-7-(trifluoromethyl)imidazo[1,2-a]pyrimidin-2-yl][(3R,3′R)-3′-hydroxy-1,4-dihydro-1′H,2H-spiro[isoquinoline-3,4′-piperidin]-1′-yl]methanone] |
| 2420 nM | 8.49 nM | 3320 nM | Cc1ccnc2nc(C(=O)N3CC[C@]4(Cc5ccccc5CN4)[C@H](O)C3)cn12 [Example 124, [(3R,3′R)-3′-hydroxy-1,4-dihydro-1′H,2H-spiro[isoquinoline-3,4′-piperidin]-1′-yl](5-methylimidazo[1,2-a]pyrimidin-2-yl)methanone] |
| 298 nM | 0.515 nM | 13.8 nM | COc1cc2nc(C(=O)N3CC[C@]4(Cc5ccccc5CN4)[C@H](O)C3)cn2cc1Br [Example 125] |
| 5010 nM | 7.15 nM | 399 nM | Cc1cn2cc(C(=O)N3CC[C@]4(Cc5ccccc5CN4)[C@H](O)C3)nc2nc1C [Example 126, (6,7-dimethylimidazo[1,2-a]pyrimidin-2-yl)[(3R,3′R)-3′-hydroxy-1,4-dihydro-1′H,2H-spiro[isoquinoline-3,4′-piperidin]-1′-yl]methanone] |
